Test results from ChEMBL document CHEMBL1909046, “DrugMatrix in vitro pharmacology data”.

Key:
[1] = target: Voltage-gated inwardly rectifying potassium channel KCNH2 (Homo sapiens, UniProt Q12809); settings: hek293; note: in other assays of this panel Not Active means under 50% inhibition at 10 µM
Cannabinoid receptor 1 = Cannabinoid receptor 1 (Homo sapiens, UniProt P21554); assay type: cell membranes, Chem-1, Membrane; settings: chem-1; note: in other assays of this panel Not Active means under 50% inhibition at 10 µM
[2] = DRUGMATRIX: Glutamate, NMDA, Agonism radioligand binding (ligand: [3H] CGP-39653); assay type: cell membranes, Rattus norvegicus, Wistar, Cerebral cortex, Membrane; settings: Not Active = under 50% inhibition at 10 µM
[3] = target: C-C chemokine receptor type 5 (Homo sapiens, UniProt P51681); assay type: cell membranes, HEK293, Membrane; settings: hek293; note: in other assays of this panel Not Active means under 50% inhibition at 10 µM
Cytochrome P450 1A2 = target: T1, Cytochrome P450 1A2 (Homo sapiens, UniProt P05177); settings: bti-tn-5b1-4; note: in other assays of this panel Not Active means under 50% inhibition at 10 µM
T1 sequence (P05177 whole entry): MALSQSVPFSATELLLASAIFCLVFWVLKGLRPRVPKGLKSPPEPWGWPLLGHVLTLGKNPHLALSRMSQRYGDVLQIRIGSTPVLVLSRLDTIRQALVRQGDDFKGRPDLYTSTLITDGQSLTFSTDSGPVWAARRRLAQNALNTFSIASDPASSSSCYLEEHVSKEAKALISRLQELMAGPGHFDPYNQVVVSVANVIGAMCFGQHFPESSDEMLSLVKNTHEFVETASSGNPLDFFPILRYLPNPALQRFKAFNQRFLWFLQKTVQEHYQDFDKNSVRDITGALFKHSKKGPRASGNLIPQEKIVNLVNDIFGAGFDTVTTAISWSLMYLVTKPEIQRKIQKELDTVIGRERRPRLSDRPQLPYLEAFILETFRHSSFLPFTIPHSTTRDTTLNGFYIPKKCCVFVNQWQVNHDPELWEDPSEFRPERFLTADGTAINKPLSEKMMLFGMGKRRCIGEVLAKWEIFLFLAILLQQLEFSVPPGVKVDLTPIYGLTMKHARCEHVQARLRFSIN

[4] = DRUGMATRIX: GABAA, Chloride Channel, TBOB radioligand binding (ligand: [3H] TBOB); assay type: cell membranes, Rattus norvegicus, Wistar, Cerebral cortex, Membrane; settings: Not Active = under 50% inhibition at 10 µM
[5] = target: Protein phosphatase 3 catalytic subunit alpha (Homo sapiens, UniProt Q08209); parameters: species or system Escherichia coli
[6] = target: T2, Polyunsaturated fatty acid lipoxygenase ALOX15 (Oryctolagus cuniculus, UniProt P12530); test: biochemical; assay type: tissue-based, Reticulocytes
T2 sequence (P12530 whole entry): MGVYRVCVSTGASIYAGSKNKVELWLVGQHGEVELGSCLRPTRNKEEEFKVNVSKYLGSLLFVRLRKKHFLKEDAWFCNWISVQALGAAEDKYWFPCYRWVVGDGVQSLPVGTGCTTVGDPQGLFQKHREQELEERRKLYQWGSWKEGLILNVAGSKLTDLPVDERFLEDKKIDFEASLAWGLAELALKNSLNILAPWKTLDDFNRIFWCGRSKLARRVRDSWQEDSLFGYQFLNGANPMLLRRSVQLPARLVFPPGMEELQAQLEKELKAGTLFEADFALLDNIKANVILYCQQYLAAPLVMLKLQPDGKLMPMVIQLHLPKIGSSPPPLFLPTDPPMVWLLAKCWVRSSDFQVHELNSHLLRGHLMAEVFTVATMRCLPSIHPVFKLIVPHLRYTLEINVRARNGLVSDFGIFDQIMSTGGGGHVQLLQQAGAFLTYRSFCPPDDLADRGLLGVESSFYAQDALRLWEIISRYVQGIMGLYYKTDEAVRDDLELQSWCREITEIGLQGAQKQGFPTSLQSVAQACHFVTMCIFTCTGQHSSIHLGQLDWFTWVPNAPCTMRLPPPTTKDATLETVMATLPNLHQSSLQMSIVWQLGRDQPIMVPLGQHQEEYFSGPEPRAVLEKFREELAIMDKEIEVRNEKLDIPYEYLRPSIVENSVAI

Cannabinoid receptor 1, sequence (P21554 whole entry): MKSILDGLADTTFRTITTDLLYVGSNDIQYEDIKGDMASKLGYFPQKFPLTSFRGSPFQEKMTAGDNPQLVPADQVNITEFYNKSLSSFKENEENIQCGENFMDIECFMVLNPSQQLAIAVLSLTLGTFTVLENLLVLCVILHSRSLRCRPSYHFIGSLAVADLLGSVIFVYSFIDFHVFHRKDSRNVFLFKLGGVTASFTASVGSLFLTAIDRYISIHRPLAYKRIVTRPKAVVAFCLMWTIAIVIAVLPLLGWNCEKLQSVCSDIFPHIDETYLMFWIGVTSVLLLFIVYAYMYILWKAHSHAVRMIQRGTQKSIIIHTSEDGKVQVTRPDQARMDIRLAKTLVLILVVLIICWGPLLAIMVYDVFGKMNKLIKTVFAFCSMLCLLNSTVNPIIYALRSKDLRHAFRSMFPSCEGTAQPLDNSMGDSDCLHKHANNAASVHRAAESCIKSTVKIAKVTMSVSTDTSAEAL
Voltage-gated inwardly rectifying potassium channel KCNH2, sequence (Q12809 whole entry): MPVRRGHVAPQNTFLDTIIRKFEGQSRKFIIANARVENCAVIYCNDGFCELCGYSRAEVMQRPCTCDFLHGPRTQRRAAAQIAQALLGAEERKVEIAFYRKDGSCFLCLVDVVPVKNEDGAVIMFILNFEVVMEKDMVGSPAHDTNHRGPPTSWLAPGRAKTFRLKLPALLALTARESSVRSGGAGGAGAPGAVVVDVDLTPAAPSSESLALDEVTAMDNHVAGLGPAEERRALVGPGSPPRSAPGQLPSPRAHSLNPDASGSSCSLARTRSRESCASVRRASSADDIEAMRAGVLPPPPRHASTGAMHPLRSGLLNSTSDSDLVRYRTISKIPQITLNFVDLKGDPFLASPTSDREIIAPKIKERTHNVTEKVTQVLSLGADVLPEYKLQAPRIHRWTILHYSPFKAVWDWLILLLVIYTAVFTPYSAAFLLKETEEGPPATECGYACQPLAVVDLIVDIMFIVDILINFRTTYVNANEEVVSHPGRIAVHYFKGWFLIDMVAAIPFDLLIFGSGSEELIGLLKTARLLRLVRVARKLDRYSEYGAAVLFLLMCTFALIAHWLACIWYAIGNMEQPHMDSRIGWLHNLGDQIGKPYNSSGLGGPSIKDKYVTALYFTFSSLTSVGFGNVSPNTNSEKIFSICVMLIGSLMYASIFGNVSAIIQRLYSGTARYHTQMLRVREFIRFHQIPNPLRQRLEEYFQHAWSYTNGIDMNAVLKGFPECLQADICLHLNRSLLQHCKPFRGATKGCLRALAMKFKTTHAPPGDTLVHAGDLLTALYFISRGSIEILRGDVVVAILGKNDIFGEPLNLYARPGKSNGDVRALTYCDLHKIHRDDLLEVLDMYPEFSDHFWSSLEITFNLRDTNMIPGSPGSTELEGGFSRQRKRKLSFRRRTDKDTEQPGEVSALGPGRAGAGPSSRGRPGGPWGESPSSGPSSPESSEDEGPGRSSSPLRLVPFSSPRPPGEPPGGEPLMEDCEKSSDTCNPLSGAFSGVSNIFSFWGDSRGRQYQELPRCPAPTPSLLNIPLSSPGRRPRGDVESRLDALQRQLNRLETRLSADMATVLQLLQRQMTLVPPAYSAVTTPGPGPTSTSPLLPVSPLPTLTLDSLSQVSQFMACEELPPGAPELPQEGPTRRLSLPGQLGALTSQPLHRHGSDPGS
C-C chemokine receptor type 5, sequence (P51681 whole entry): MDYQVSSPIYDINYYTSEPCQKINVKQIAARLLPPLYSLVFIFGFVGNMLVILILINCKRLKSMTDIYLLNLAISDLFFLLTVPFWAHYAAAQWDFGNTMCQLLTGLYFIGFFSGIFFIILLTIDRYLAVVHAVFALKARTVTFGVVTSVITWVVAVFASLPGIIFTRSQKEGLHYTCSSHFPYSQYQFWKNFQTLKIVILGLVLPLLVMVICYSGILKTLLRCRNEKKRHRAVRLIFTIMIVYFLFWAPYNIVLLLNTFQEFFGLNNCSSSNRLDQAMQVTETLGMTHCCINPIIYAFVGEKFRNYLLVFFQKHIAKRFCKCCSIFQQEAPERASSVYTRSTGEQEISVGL

Row | Molecule | IC50 [1] | Ki [1] | IC50 (Cannabinoid receptor 1) | Ki (Cannabinoid receptor 1) | IC50 [2] | Ki [2] | IC50 [3] | Ki [3] | IC50 (Cytochrome P450 1A2) | Ki (Cytochrome P450 1A2) | IC50 [4] | Ki [4] | IC50 [5] | Ki [5] | IC50 ([6]; reticulocytes) | Ki ([6]; reticulocytes) | IC50 ([6]; read-out: IC50)
1 | CADMIUM DICHLORIDE | Not Active | Not Active | Not Active | Not Active | Not Active | Not Active | Not Active | Not Active | Not Active | Not Active | Not Active | Not Active | Not Active | Not Active | Not Active | Not Active | –
2 | CCCN(CCC)C(=O)C(CCC(=O)O)NC(=O)c1ccccc1 (stereo not drawn) [PROGLUMIDE] | Not Active | Not Active | Not Active | – | Not Active | Not Active | Not Active | – | Not Active | Not Active | Not Active | Not Active | Not Active | – | Not Active | – | –
3 | O=C(N[C@H](CO)[C@H](O)c1ccc([N+](=O)[O-])cc1)C(Cl)Cl [CHLORAMPHENICOL] | – | – | Not Active | – | Not Active | Not Active | Not Active | – | – | – | Not Active | Not Active | Not Active | – | Not Active | – | –
4 | CCCCOc1ccc(OCCCN2CCOCC2)cc1 [PRAMOXINE] | Not Active | Not Active | Not Active | – | Not Active | Not Active | Not Active | – | Not Active | Not Active | Not Active | Not Active | Not Active | – | Not Active | – | –
5 | CC(C)(C(=O)c1cccnc1)c1cccnc1 [METYRAPONE] | Not Active | Not Active | Not Active | – | Not Active | Not Active | Not Active | – | Not Active | Not Active | Not Active | Not Active | Not Active | – | Not Active | – | –
6 | CC(=O)Nc1cccc(O)c1 [METACETAMOL] | Not Active | Not Active | Not Active | – | Not Active | Not Active | Not Active | – | – | – | Not Active | Not Active | Not Active | – | Not Active | – | –
7 | NC(=O)c1cnccn1 [PYRAZINAMIDE] | Not Active | Not Active | Not Active | – | Not Active | Not Active | Not Active | – | Not Active | Not Active | Not Active | Not Active | Not Active | – | Not Active | – | –
8 | CC[C@@H](CO)NCCN[C@@H](CC)CO [ETHAMBUTOL] | Not Active | Not Active | Not Active | – | Not Active | Not Active | Not Active | – | Not Active | Not Active | Not Active | Not Active | Not Active | – | Not Active | – | –
9 | CC(C)(Oc1ccc(C2CCCc3ccccc32)cc1)C(=O)O (stereo not drawn) [NAFENOPIN] | Not Active | Not Active | Not Active | – | Not Active | Not Active | Not Active | – | Not Active | Not Active | Not Active | Not Active | Not Active | – | Not Active | – | –
10 | C[C@@H]1C[C@@H]([C@H](O)CC2CC(=O)NC(=O)C2)C(=O)[C@@H](C)C1 [CYCLOHEXIMIDE] | Not Active | Not Active | Not Active | – | Not Active | Not Active | Not Active | – | – | – | Not Active | Not Active | Not Active | – | Not Active | – | –
11 | CCn1cc(C(=O)O)c(=O)c2cc(F)c(N3CCN(C)CC3)cc21 [PEFLOXACIN] | – | – | Not Active | – | Not Active | Not Active | Not Active | – | – | – | Not Active | Not Active | Not Active | – | Not Active | – | –
12 | S=C=Nc1cccc2ccccc12 [1-NAPHTHYLISOTHIOCYANATE] | Not Active | Not Active | Not Active | – | Not Active | Not Active | Not Active | – | – | – | Not Active | Not Active | Not Active | – | Not Active | – | –
13 | COc1ccc2cc([C@H](C)C(=O)O)ccc2c1 [NAPROXEN] | – | – | Not Active | – | Not Active | Not Active | Not Active | – | – | – | Not Active | Not Active | Not Active | – | Not Active | – | –
14 | NC(=O)NO [HYDROXYUREA] | Not Active | Not Active | Not Active | – | Not Active | Not Active | Not Active | – | – | – | Not Active | Not Active | Not Active | – | Not Active | – | –
15 | COc1ccc2c(c1)[C@]13CCCC[C@@H]1[C@H](C2)N(C)CC3 [DEXTROMETHORPHAN] | Not Active | Not Active | Not Active | – | Not Active | Not Active | Not Active | – | – | – | Not Active | Not Active | Not Active | – | Not Active | – | –
16 | O=NN(CCCl)C(=O)NCCCl [CARMUSTINE] | Not Active | Not Active | Not Active | – | Not Active | Not Active | Not Active | – | – | – | Not Active | Not Active | Not Active | – | Not Active | – | –
17 | CC1=C(C(=O)O)N2C(=O)[C@@H](NC(=O)[C@H](N)c3ccccc3)[C@H]2SC1 [CEPHALEXIN ANHYDROUS] | – | – | Not Active | – | Not Active | Not Active | Not Active | – | – | – | Not Active | Not Active | Not Active | – | Not Active | – | –
18 | COC(=O)C1=C(C)NC(C)=C(C(=O)OCC(C)C)C1c1ccccc1[N+](=O)[O-] (stereo not drawn) [NISOLDIPINE] | – | – | Not Active | – | Not Active | Not Active | Not Active | – | – | – | Not Active | Not Active | Not Active | – | Not Active | – | –
19 | C[C@]12CC[C@@H]3c4ccc(O)cc4CC[C@H]3[C@@H]1CC[C@@H]2O [ESTRADIOL] | – | – | Not Active | – | Not Active | Not Active | Not Active | – | Not Active | Not Active | Not Active | Not Active | Not Active | – | – | – | 11.3 µM
20 | N=C(Nc1ccccc1)Nc1ccccc1 | – | – | Not Active | – | Not Active | Not Active | Not Active | – | Not Active | Not Active | Not Active | Not Active | Not Active | – | Not Active | – | –
21 | CCOC(=O)C(C)(C)Oc1ccc(Cl)cc1 [CLOFIBRATE] | Not Active | Not Active | Not Active | – | Not Active | Not Active | Not Active | – | – | – | Not Active | Not Active | Not Active | – | Not Active | – | –
22 | C/C=C/C[C@@H](C)[C@@H](O)[C@H]1C(=O)N[C@@H](CC)C(=O)N(C)CC(=O)N(C)[C@@H](CC(C)C)C(=O)N[C@@H](C(C)C)C(=O)N(C)[C@@H](CC(C)C)C(=O)N[C@@H](C)C(=O)N[C@H](C)C(=O)N(C)[C@@H](CC(C)C)C(=O)N(C)[C@@H](CC(C)C)C(=O)N(C)[C@@H](C(C)C)C(=O)N1C [CYCLOSPORINE] | – | – | Not Active | – | Not Active | Not Active | Not Active | – | – | – | – | – | – | – | Not Active | – | –
